The text below walks through data of publication PMC9960827, “Cloning and Characterization of Trypanosoma congolense and T. vivax Nucleoside Transporters Reveal the Potential of P1-Type Carriers for the Discovery of Broad-Spectrum Nucleoside-Based Therapeutics against Animal African Trypanosomiasis” (International Journal of Molecular Sciences, 2023).

In one series the test system is T.b.b. B48. As to the kind of experiment: Alamar Blue (resazurin) assay, T. b. brucei B48. Conditions: read-out: T.b.b. B48 EC50. Type of series: cell-based, Trypanosoma brucei brucei. The procedure: (§1) EC50 values were determined by plotting to an equation for a sigmoid curve with variable slope (GraphPad Prism 8). All values were the average of at least three independent determinations on different days.

The next series relates to T. evansi. As to the kind of experiment: Alamar Blue (resazurin) assay, T. evansi. Type of series: cell-based, Trypanosoma evansi. Conditions: read-out: T. evansi EC50. The procedure:
as §1
(The colour change of resazurin is a common sign of viable cells or microbes.)

Series [1] can be described thus: Resazurin toxicity assay on human embryonic kidney cells. It counts as cell-based. Conditions: human. The procedure: as §1
Series [2] concerns human embryonic kidney (HEK) cells. Described as above. Type of series: cell-based. Conditions: for SI T. congolense: selectivity index = EC50 (HEK cells)/EC50 (T. congolense); for SI T. equiperdum: selectivity index = EC50 (HEK cells)/EC50 (T. equiperdum); for SI T. evansi: selectivity index = EC50 (HEK cells)/EC50 (T. evansi). The procedure:
as §1

Series [3] concerns T. vivax. The arrangement: method as in Mabille et al. [69]. Conditions: added for comparison only; ref Mabille et al. [69]; cited from earlier work.
A further series has as its system T. congolense 6C3. As to the kind of experiment: microbe, parasite or virus in culture. Type of series: cell-based, Trypanosoma congolense. Conditions: for EC50: diminazene resistant strain, resazurin, read-out: T. congolense 6C3 EC50; for T. congolense 6C3 RF: resistance factor = EC50 (test strain)/EC50(control strain). The procedure: as §1
The next series concerns L. mexicana Cas9. The series is described as follows: Resazurin drug sensitivity assay, LmexCas9. Conditions: read-out: LmexCas9 EC50. It counts as cell-based, Leishmania mexicana. The procedure: as §1
The next series deals with L. mexicana SUPKO+TcoAT1. The series is described as follows: microbe, parasite or virus in culture. Conditions: for EC50: read-out: SUPKO+TcoAT1 EC50; for SUPKO+TcoAT1 RF (SUPKO): Resistance Factor relative to SUPKO. It counts as cell-based, Leishmania mexicana. The procedure:
as §1

The subject of the next series is L. mexicana SUPKO+TvxNT3. As to the kind of experiment: microbe, parasite or virus in culture. Type of series: cell-based, Leishmania mexicana. Conditions: for EC50: read-out: SUPKO+TvxNT3 EC50; for SUPKO+TvxNT3 RF (SUPKO): Resistance Factor relative to SUPKO. The procedure: as §1
A further series relates to L. mexicana SUPKO. The series is described as follows: microbe, parasite or virus in culture. It counts as cell-based, Leishmania mexicana. Conditions: for SUPKO RF (Cas9): Resistance Factor = EC50(SUPKO)/EC50(Cas9). The procedure:
as §1

The test system of the next series is T. equiperdum. The series is described as follows: Alamar Blue (resazurin) assay, T. equiperdum. Type of series: cell-based, Trypanosoma equiperdum. Conditions: read-out: T. equiperdum EC50. The procedure: as §1
In another series the test system is T. congolense IL3000. As to the kind of experiment: Alamar Blue (resazurin) assay, T. congolense IL3000. Type of series: cell-based, Trypanosoma congolense. Conditions: read-out: T. congolense IL3000 EC50. The procedure: as §1
Series [4] concerns the target T. congolense adenosine transporter. As to the kind of experiment: [3H]-adenosine uptake and its inhibition in T. congolense IL3000 bloodstream forms. Conditions: for Ki: 0.05 µM [3H]-adenosine, 30 s, IC50 converted to Ki, read-out: Ki on the transport of [3H]-adenosine; for ΔG0, Gibbs free energy of interaction: calculated from Km or Ki. Type of series: cell-based, Trypanosoma congolense. The procedure:
(§2) Uptake assays using radiolabeled trypanocides and/or nucleosides were carried out as described previously. Briefly, parasite cultures were harvested, washed twice in assay buffer (33 mM HEPES, 98 mM NaCl, 4.6 mM KCl, 0.5 mM CaCl2, 0.07 mM MgSO4, 5.8 mM NaH3PO4, 0.03 mM MgCl2, 23 mM NaHCO3, 14 mM D-glucose, pH 7.3), then resuspended and adjusted to a density of 1 × 10^8 cells/mL in assay buffer. The radiolabeled permeant in the presence or absence of different concentrations of potential inhibitors reconstituted in 100 μL assay buffer was deposited on top of 250 μL oil mix in microcentrifuge tubes; 1 × 10^7 parasites in 100 μL assay buffer were added to the tube and incubated for a pre-determined interval. The reaction was stopped by the addition of 1 mL of a high concentration of ice-cold unlabeled substrate in assay buffer (‘stop solution’) and centrifugation, or by immediate centrifugation at […] as appropriate. The microcentrifuge tubes were flash-frozen, and the bottom of each tube containing the cell pellet was cut off and transferred to a scintillation vial. Cell pellets were lysed in 2% SDS, after which scintillation fluid (Scintlogic U, Lablogic) was added, followed by overnight incubation in the dark. Scintillation was measured in a 300SL (Hidex) scintillation counter (Hidex). All the assays were conducted in triplicate and analysis was carried out using Microsoft Excel and GraphPad Prism. All kinetic parameters were obtained on at least 3 separate occasions.
(§3) The dose-dependent uptake assay allowed for the affinity of nucleoside analogs to different nucleoside transporters to be determined by measuring the extent to which the analogs compete with and inhibit the uptake of radiolabel adenosine. This allowed for the determination of biochemical parameters such as Km and Vmax through the application of the Michaelis–Menten equation V0 = Vmax([substrate]/([substrate] + Km)). The 50% Inhibitory Concentration (IC50) of the purines and pyrimidines and their analogs was determined from non-linear regression to sigmoid curves with variable slope (Prism 8), and the IC50 of the inhibitor and the Km of the labeled permeant were then used to calculate the inhibition constant (Ki) of the analogs through the Cheng–Prusoff equation: Ki = IC50/(1 + (L/Km)), where L denotes the radiolabel concentration. The calculated Ki was in turn used to determine the Gibbs free energy (ΔG^0) of the inhibitor–transporter interaction using the equation: ΔG^0 = -RTln(Ki), where R represents the gas constant and T symbolizes the absolute temperature in Kelvin [104].

In the next series the target is TcoAT1. It counts as cell-based, Trypanosoma congolense. Conditions: for Ki: 0.05 µM [3H]-adenosine, 10 s, IC50 converted to Ki, read-out: Ki on the transport of [3H]-adenosine.
Excerpt: The information for the T. congolense adenosine transporter (TcoAT1) and four putative T. vivax nucleoside transporters was obtained in the TritrypDB (tritrypdb.org/tritrypdb) genome database. Primers were designed to flank each gene upstream of the 5′ end (forward) and downstream of the 3′ end (reverse) as described (primer sequences in Supplementary Table S2). Following amplification from the genomic DNA of T. congolense or T. vivax, DNA for each extracted gene was ligated into the pNUS-HcN expression vector doubly digested with NdeI using the NEBuilder kit according to the manufacturer’s instructions (New England Biolabs). Construct was transformed into competent E. coli cells, and ligation was confirmed by restriction enzyme digestion of isolated plasmid DNA followed by Sanger sequencing (Source BioScience, Nottingham, UK). Confirmed plasmids were then transfected into L. mexicana cell line in which both NT1 and NT2 were doubly knocked out (SUPKO) and derived from L. mexicana Cas9 [64] as described. Clones grown in medium containing 50 μg/mL neomycin (G418) were collected for further confirmation by PCR with genomic DNA using a forward primer of the transporter gene and a reverse primer of the plasmid.
as §2, §3

For series [5], the system named is T. vivax. The series is described as follows: T. vivax EC50 (from Mabille et al.). Conditions: from Table 8 data. It counts as cell-based, Trypanosoma vivax.
Where [6] appears, read: resazurin, promastigotes, read-out: SUPKO EC50.

Like-named read-outs stand apart in the source and are kept apart here. Some results are limits rather than exact numbers.

With `Nc1ncnc2c1c(C(F)(F)F)cn2[C@@H]1O[C@H](CO)[C@@H](O)[C@H]1O` [FH6367, 7-trifluoromethyl-7-deazaadenosine], the EC50 – broadly, the midpoint of the concentration-response curve – in the series on T.b.b. B48 (Trypanosoma brucei) was 900 ± 130 nM; in the series with T. evansi (Trypanosoma evansi), 680 ± 110 nM; in series [1], 490 ± 10 nM; in the series with T. vivax [3], 820 ± 90 nM; in the series on T. congolense 6C3 (Trypanosoma congolense), 890 ± 170 nM; in the series with L. mexicana Cas9 (Leishmania mexicana) it was 26100 ± 6400 nM. The EC50 was 3790 ± 340 nM with L. mexicana SUPKO+TcoAT1 (Leishmania mexicana); 7400 ± 1400 nM in the series with L. mexicana SUPKO+TvxNT3 (Leishmania mexicana); above 100000 nM in the series on L. mexicana SUPKO (Leishmania mexicana, read-out: SUPKO EC50, resazurin, promastigotes); 190 ± 30 nM with T. equiperdum (Trypanosoma equiperdum); 1800 ± 440 nM in the series with T. congolense IL3000 (Trypanosoma congolense). The “SI T. congolense” value in series [2] is reported as 0.3. Moreover, the “SI T. equiperdum” value in series [2] came out at 2.6. Besides, in [2], the “SI T. evansi” value was found to be 0.7. For the same molecule, in the series on T. congolense 6C3, the “T. congolense 6C3 RF” value was found to be 0.50. In the series with L. mexicana SUPKO+TcoAT1, the “SUPKO+TcoAT1 RF (SUPKO)” value is above 26.4. The “SUPKO+TvxNT3 RF (SUPKO)” value in the series with L. mexicana SUPKO+TvxNT3 is listed as above 13.5. Also, the “SUPKO RF (Cas9)” value with L. mexicana SUPKO is on record as above 3.83.

As for `Nc1ncnc2c1c(F)cn2[C@@H]1O[C@H](CO)C[C@H]1O` [FH8517], the 50% effective concentration (EC50) with T.b.b. B48 (multidrug-resistant strain, resazurin) is 13 ± 2 nM; with T. evansi (resazurin), 4 ± 0.6 nM; in series [2], 1710 ± 110 nM; in the series on T. vivax [3], 500 ± 10 nM; in the series on T. congolense 6C3 it was 3.1 ± 0.3 nM; in the series on L. mexicana Cas9 (resazurin, promastigotes) it was 3090 ± 40 nM. Moreover, the concentration for a half-maximal effect (EC50) in the series on L. mexicana SUPKO+TcoAT1 (resazurin, promastigotes) was 6100 ± 700 nM; in the series with L. mexicana SUPKO+TvxNT3 (resazurin, promastigotes), 9420 ± 1410 nM; with L. mexicana SUPKO (setting [6]), 9960 ± 2040 nM; in the series on T. equiperdum (resazurin) it was 0.52 ± 0.11 nM; with T. congolense IL3000 (BSF, resazurin), 5.2 ± 0.3 nM. In addition, the “SI T. congolense” value in series [2] stood at 330. Besides, the “SI T. equiperdum” value in [2] came to 3310. The “SI T. evansi” value in series [2] was found to be 431. The inhibition constant Ki (commonly the equilibrium dissociation constant of an inhibitor or competing ligand from its target) stood at 98100 ± 2300 nM in series [4] and 229000 ± 15000 nM at TcoAT1. Moreover, the “ΔG0, Gibbs free energy of interaction” value in series [4] was -5.47 kcal/mol. Also, the “T. congolense 6C3 RF” value in the series with T. congolense 6C3 worked out at 0.60. Moreover, the ΔG0 in the series on TcoAT1 (Gibbs free energy of binding, from Km or Ki) is -4.97 kcal/mol. In addition, the “SUPKO+TcoAT1 RF (SUPKO)” value with L. mexicana SUPKO+TcoAT1 is reported as 1.64. Further, the “SUPKO+TvxNT3 RF (SUPKO)” value in the series with L. mexicana SUPKO+TvxNT3 is on record as 1.06. Also, the “SUPKO RF (Cas9)” value in the series on L. mexicana SUPKO turned out to be 3.22.

On to `C=Cc1cn([C@@H]2O[C@H](CO)C[C@H]2O)c2ncnc(N)c12` [FH10659], for which the EC50 was 38 ± 1.5 nM with T. evansi (resazurin); 1570 ± 430 nM in the series on T. vivax [3]; 40 ± 3 nM in the series on T. congolense 6C3; above 100000 nM with L. mexicana Cas9 (resazurin, promastigotes); above 100000 nM in the series with L. mexicana SUPKO+TcoAT1 (resazurin, promastigotes); above 100000 nM in the series with L. mexicana SUPKO+TvxNT3 (resazurin, promastigotes). Besides, the concentration for a half-maximal effect (EC50) in the series with L. mexicana SUPKO (setting [6]) is above 100000 nM; in the series with T. equiperdum (resazurin) it was 11 ± 1 nM; with T. congolense IL3000 (BSF, resazurin) it was 56 ± 4 nM. The “fold higher EC50 against T. vivax compared to T. congolense” value in the series on T. vivax [5] is 10–165 fold. For the same molecule, the figures for the inhibitory constant (Ki) (in [4]; on TcoAT1) were 28500 ± 8100 nM and 59300 ± 4300 nM, respectively. The “ΔG0, Gibbs free energy of interaction” value in series [4] was -6.19 kcal/mol. Also, in the series on T. congolense 6C3, the “T. congolense 6C3 RF” value worked out at 0.70.
